Key:
NIH-3T3 cells = assay: qHTS cell viability (CellTiter-Glo, 72 h; primary screen), control cell line; format: cell-based, mouse
HACAT cells = assay: as above; format: cell-based, human
CRL-7250 cells = assay: as above; format: cell-based
MKL-2 cells (VP-MCC) = assay: qHTS cell viability (CellTiter-Glo, 72 h; primary and follow-up small molecule screen); format: cell-based, human
HEK293T cells = assay: qHTS cell viability (CellTiter-Glo, 72 h; primary screen), control cell line; format: cell-based, human
MCC26 cells (VN-MCC) = assay: qHTS cell viability (CellTiter-Glo, 72 h; primary and follow-up small molecule screen); format: cell-based, human
[1] = system: six MCC cell lines and four control cell lines; assay: qHTS cell viability, all 10 cell lines screened; format: cell-based; conditions: NPC library; therapeutic window: Control avg AUC minus MCC avg AUC
[2] = system: control cell lines (HACAT, HEK293T, CRL-7250, NIH-3T3); assay: qHTS cell viability, control cell lines as a group (mean AUC, Control.avg); format: cell-based; conditions: NPC library; mean AUC of control cell lines
[3] = system: VP-MCC cell lines (WAGA, MKL-1, MKL-2); assay: qHTS cell viability, VP-MCC cell lines as a group (mean AUC, VP.MCC.avg); format: cell-based, human; conditions: for VP-MCC_Avg_AUC: mean AUC of VP-MCC cell lines
MCC13 cells (VN-MCC) = assay: qHTS cell viability (CellTiter-Glo, 72 h; primary and follow-up small molecule screen); format: cell-based, human
UISO cells (VN-MCC) = assay: as above; format: cell-based, human
WAGA cells (VP-MCC) = assay: as above; format: cell-based, human
[4] = system: MCC cell lines (WAGA, MKL-1, MKL-2, MCC13, MCC26, UISO); assay: qHTS cell viability, all six MCC cell lines as a group (mean AUC, MCC.avg); format: cell-based, human; conditions: NPC library
MKL-1 cells (VP-MCC) = assay: qHTS cell viability (CellTiter-Glo, 72 h; primary and follow-up small molecule screen); format: cell-based, human
[5] = system: VN-MCC cell lines (MCC13, MCC26, UISO); assay: qHTS cell viability, VN-MCC cell lines as a group (mean AUC, VN.MCC.avg); format: cell-based, human; conditions: for VN-MCC_Avg_AUC: mean AUC of VN-MCC cell lines
[6] = NPC library, qHTS dose-response AUC, NIH3T3 control
[7] = NPC library, qHTS dose-response AUC, HACAT control
[8] = NPC library, qHTS dose-response AUC, CRL7250 control
[9] = NPC library, qHTS dose-response AUC, MKL2
[10] = NPC library; qHTS dose-response AUC, HEK293T control
[11] = NPC library; qHTS dose-response AUC, MCC26
[12] = NPC library, therapeutic window: Control avg AUC minus VP-MCC avg AUC
[13] = NPC library, qHTS dose-response AUC, MCC13
[14] = NPC library, qHTS dose-response AUC, UISO
[15] = NPC library, qHTS dose-response AUC, WAGA
[16] = NPC library, qHTS dose-response AUC, MKL1
[17] = NPC library, therapeutic window: Control avg AUC minus VN-MCC avg AUC

## CCCC(=O)OC[C@@H](OC(=O)CCC)[C@@H](OC(=O)CCC)[C@H](Cn1c2nc(=O)[nH]c(=O)c-2nc2cc(C)c(C)cc21)OC(=O)CCC [Riboflavin tetrabutyrate]
NIH-3T3 cells; [6]
  NIH3T3_AUC: 473.017
NIH-3T3 cells; area under the dose-response curve, NIH3T3 control cells, AUC<450 = reduced viability
  NIH3T3_AUC: 473.017
HACAT cells; [7]
  HACAT_AUC: 497.126
HACAT cells; area under the dose-response curve, HACAT control cells, AUC<450 = reduced viability
  HACAT_AUC: 497.126
CRL-7250 cells; [8]
  CRL7250_AUC: 470.473
CRL-7250 cells; area under the dose-response curve, CRL7250 control cells, AUC<450 = reduced viability
  CRL7250_AUC: 470.473
MKL-2 cells (VP-MCC); [9]
  MKL2_AUC: 430.163
MKL-2 cells (VP-MCC); area under the dose-response curve, MKL-2 cells, AUC<450 = reduced viability
  MKL2_AUC: 430.163
HEK293T cells; [10]
  HEK293T_AUC: 450.178
HEK293T cells; area under the dose-response curve, HEK293T control cells; AUC<450 = reduced viability
  HEK293T_AUC: 450.178
MCC26 cells (VN-MCC); [11]
  MCC26_AUC: 500.723
MCC26 cells (VN-MCC); area under the dose-response curve, MCC26 cells; AUC<450 = reduced viability
  MCC26_AUC: 500.723
[1]
  Control-MCC: 16.0097
[2]
  Control_Avg_AUC: 472.698
[3]; NPC library
  VP-MCC_Avg_AUC: 421.656
[3]; [12]
  Control-VP-MCC: 51.0422
MCC13 cells (VN-MCC); [13]
  MCC13_AUC: 481.481
MCC13 cells (VN-MCC); area under the dose-response curve, MCC13 cells, AUC<450 = reduced viability
  MCC13_AUC: 481.481
UISO cells (VN-MCC); [14]
  UISO_AUC: 492.96
UISO cells (VN-MCC); area under the dose-response curve, UISO cells, AUC<450 = reduced viability
  UISO_AUC: 492.96
WAGA cells (VP-MCC); [15]
  WAGA_AUC: 418.091
WAGA cells (VP-MCC); area under the dose-response curve, WAGA cells, AUC<450 = reduced viability
  WAGA_AUC: 418.091
[4]; mean AUC of six MCC cell lines
  MCC_Avg_AUC: 456.689
MKL-1 cells (VP-MCC); [16]
  MKL1_AUC: 416.714
MKL-1 cells (VP-MCC); {}
  MKL1_AUC: 416.714
[5]; NPC library
  VN-MCC_Avg_AUC: 491.721
[5]; [17]
  Control-VN-MCC: -19.0227

## O=C(N/N=C/c1ccccc1O)c1ccncc1 [Salinazid]
NIH-3T3 cells; [6]
  NIH3T3_AUC: 449.726
HACAT cells; [7]
  HACAT_AUC: 455.974
CRL-7250 cells; [8]
  CRL7250_AUC: 476.052
MKL-2 cells (VP-MCC); [9]
  MKL2_AUC: 340.216
HEK293T cells; NPC library, qHTS dose-response AUC, HEK293T control
  HEK293T_AUC: 458.621
MCC26 cells (VN-MCC); NPC library, qHTS dose-response AUC, MCC26
  MCC26_AUC: 445.789
[1]
  Control-MCC: 71.983
[2]
  Control_Avg_AUC: 460.093
[3]; Control AUC minus VP-MCC AUC
  Control-VP-MCC: 91.9801
[3]; NPC library
  VP-MCC_Avg_AUC: 368.113
[3]; [12]
  Control-VP-MCC: 91.9801
MCC13 cells (VN-MCC); [13]
  MCC13_AUC: 439.405
UISO cells (VN-MCC); [14]
  UISO_AUC: 339.128
WAGA cells (VP-MCC); [15]
  WAGA_AUC: 408.656
[4]; mean AUC of all 6 MCC cell lines
  MCC_Avg_AUC: 388.11
[4]; mean AUC of six MCC cell lines
  MCC_Avg_AUC: 388.11
MKL-1 cells (VP-MCC); [16]
  MKL1_AUC: 355.467
[5]; Control AUC minus VN-MCC AUC
  Control-VN-MCC: 51.9858
[5]; NPC library
  VN-MCC_Avg_AUC: 408.107
[5]; [17]
  Control-VN-MCC: 51.9858

## Clc1ccc(C(Cn2ccnc2)OCc2ccsc2Cl)c(Cl)c1 (stereo not shown) [Tioconazole]
NIH-3T3 cells; [6]
  NIH3T3_AUC: 445.245
HACAT cells; [7]
  HACAT_AUC: 488.14
CRL-7250 cells; [8]
  CRL7250_AUC: 480.608
MKL-2 cells (VP-MCC); [9]
  MKL2_AUC: 282.208
HEK293T cells; [10]
  HEK293T_AUC: 456.797
MCC26 cells (VN-MCC); [11]
  MCC26_AUC: 501.8
[1]
  Control-MCC: 97.8731
[2]
  Control_Avg_AUC: 467.697
[3]; NPC library
  VP-MCC_Avg_AUC: 280.262
[3]; [12]
  Control-VP-MCC: 187.435
MCC13 cells (VN-MCC); [13]
  MCC13_AUC: 438.775
UISO cells (VN-MCC); [14]
  UISO_AUC: 437.585
WAGA cells (VP-MCC); [15]
  WAGA_AUC: 248.268
[4]; mean AUC of six MCC cell lines
  MCC_Avg_AUC: 369.824
MKL-1 cells (VP-MCC); [16]
  MKL1_AUC: 310.311
[5]; NPC library
  VN-MCC_Avg_AUC: 459.387
[5]; [17]
  Control-VN-MCC: 8.311
